For one test, the target named is TAF1-BD1 (Homo sapiens, UniProt P21675). Description: TAF1-BD1 TR-FRET Binding Assay. To be noted: read-out: TAF1-BD1 HTRF IC50.
The next test has as its target TAF1-BD2 (Homo sapiens, UniProt P21675). As to the kind of experiment: TAF1-BD2 TR-FRET Binding Assay. The settings on record: read-out: TAF1-BD2 HTRF IC50.

Regarding `CCCCC(C)(C)OC(=O)c1c(C)[nH]c2c(=O)n(C)cc(C#CC(C)(C)O)c12` [Example 146, 1,1-dimethylpentyl 4-(3-hydroxy-3-methyl-but-1-ynyl)-2,6-dimethyl-7-oxo-1H-pyrrolo[2,3-c]pyridine-3-carboxylate], the IC50 (in general, the midpoint of a concentration-inhibition curve) worked out at 288 nM at TAF1-BD1 and 43.2 nM at TAF1-BD2.
Consider `Cc1[nH]c2c(=O)n(C)cc(C#CC(C)(C)O)c2c1C(=O)OCC1CCCC1` [Example 148, cyclopentylmethyl 4-(3-hydroxy-3-methyl-but-1-ynyl)-2,6-dimethyl-7-oxo-1H-pyrrolo[2,3-c]pyridine-3-carboxylate], for which the IC50 at TAF1-BD1 turned out to be 96.8 nM; on TAF1-BD2, 23.7 nM.
The corresponding values for `Cc1[nH]c2c(=O)n(C)cc(C#CC(C)(C)O)c2c1C(=O)OCC(C)(C)C` [Example 150, 2,2-dimethylpropyl 4-(3-hydroxy-3-methyl-but-1-ynyl)-2,6-dimethyl-7-oxo-1H-pyrrolo[2,3-c]pyridine-3-carboxylate] are 93.6 nM and 30.4 nM.
For the compound `CCC(C)(C)OC(=O)c1c(C)[nH]c2c(=O)n(C)cc(C#CC(C)(C)O)c12` [Example 151, 1,1-dimethylpropyl 4-(3-hydroxy-3-methyl-but-1-ynyl)-2,6-dimethyl-7-oxo-1H-pyrrolo[2,3-c]pyridine-3-carboxylate], the IC50 on TAF1-BD1 came to 221 nM; at TAF1-BD2 it was 35.1 nM.
On to `Cc1[nH]c2c(=O)n(C)cc(C#CC(C)(O)CC#N)c2c1C(=O)OCC(C)C` (stereo not drawn) [Example 154, isobutyl 4-(4-cyano-3-hydroxy-3-methyl-but-1-ynyl)-2,6-dimethyl-7-oxo-1H-pyrrolo[2,3-c]pyridine-3-carboxylate], for which the values for the 50% inhibitory concentration (IC50) on TAF1-BD1 and at TAF1-BD2 were 150 nM and 99.8 nM, respectively.
In the same order, the values of `Cc1[nH]c2c(=O)n(C)cc(C#CC(C)(O)CC#N)c2c1C(=O)OC(C)C` (stereo not drawn) [Example 156, isopropyl 4-(4-cyano-3-hydroxy-3-methyl-but-1-ynyl)-2,6-dimethyl-7-oxo-1H-pyrrolo[2,3-c]pyridine-3-carboxylate] are 276 nM and 106 nM.
Regarding `Cc1cc([C@](C)(O)C#Cc2cn(C)c(=O)c3[nH]c(C)c(C(=O)OC(C)C)c23)no1` [Example 157, isopropyl 4-[(3R)-3-hydroxy-3-(5-methylisoxazol-3-yl)but-1-ynyl]-2,6-dimethyl-7-oxo-1H-pyrrolo[2,3-c]pyridine-3-carboxylate], the IC50 at TAF1-BD1 came out at 233 nM; on TAF1-BD2, 71.2 nM.
The corresponding values for `Cc1cc([C@](C)(O)C#Cc2cn(C)c(=O)c3[nH]c(C)c(C(=O)OCC(C)C)c23)no1` [Example 158, isobutyl 4-[(3R)-3-hydroxy-3-(5-methylisoxazol-3-yl)but-1-ynyl]-2,6-dimethyl-7-oxo-1H-pyrrolo[2,3-c]pyridine-3-carboxylate] are 112 nM and 50.2 nM.
In the same order, the values of `Cc1[nH]c2c(=O)n(C)cc(C#CC(C)(O)c3ccccc3)c2c1C(=O)OCC(C)C` (stereo not drawn) [Example 160, isobutyl 4-(3-hydroxy-3-phenyl-but-1-ynyl)-2,6-dimethyl-7-oxo-1H-pyrrolo[2,3-c]pyridine-3-carboxylate] are 130 nM and 32.4 nM.
The corresponding values for `Cc1[nH]c2c(=O)n(C)cc(C#CC(C)(O)c3ccccc3)c2c1C(=O)OC(C)(C)C` (stereo not drawn) [Example 162, tert-butyl 4-(3-hydroxy-3-phenyl-but-1-ynyl)-2,6-dimethyl-7-oxo-1H-pyrrolo[2,3-c]pyridine-3-carboxylate] are 318 nM and 54.4 nM.
On to `Cc1[nH]c2c(=O)n(C)cc(C#CC(C)(C)O)c2c1C(=O)OC(C)(C)CC#N` [Example 163, (2-cyano-1,1-dimethyl-ethyl) 4-(3-hydroxy-3-methyl-but-1-ynyl)-2,6-dimethyl-7-oxo-1H-pyrrolo[2,3-c]pyridine-3-carboxylate], for which the half-maximal inhibitory concentration (IC50) on TAF1-BD1 came out at 283 nM; at TAF1-BD2, 27.3 nM.
In the same order, the values of `CC(=O)NCCC(C)(C)OC(=O)c1c(C)[nH]c2c(=O)n(C)cc(C#CC(C)(C)O)c12` [Example 164, (3-acetamido-1,1-dimethyl-propyl) 4-(3-hydroxy-3-methyl-but-1-ynyl)-2,6-dimethyl-7-oxo-1H-pyrrolo[2,3-c]pyridine-3-carboxylate] are 514 nM and 48.5 nM.
In the same order, the values of `Cc1[nH]c2c(=O)n(C)cc(C#CC(C)(C)O)c2c1C(=O)OC(C)(C)CCN` [Example 165, (3-amino-1,1-dimethyl-propyl) 4-(3-hydroxy-3-methyl-but-1-ynyl)-2,6-dimethyl-7-oxo-1H-pyrrolo[2,3-c]pyridine-3-carboxylate] are 551 nM and 21.7 nM.
The corresponding values for `Cc1[nH]c2c(=O)n(C)cc(C#CC(O)(c3ccccc3)C(F)(F)F)c2c1C(=O)OCCC#N` (stereo not drawn) [Example 166, 2-cyanoethyl 2,6-dimethyl-7-oxo-4-(4,4,4-trifluoro-3-hydroxy-3-phenyl-but-1-ynyl)-1H-pyrrolo[2,3-c]pyridine-3-carboxylate] are 214 nM and 31.2 nM.
As to `CCNC(=O)c1c(C)[nH]c2c(=O)n(C)cc(C#CC(C)(C)O)c12` [Example 168, N-ethyl-4-(3-hydroxy-3-methyl-but-1-ynyl)-2,6-dimethyl-7-oxo-1H-pyrrolo[2,3-c]pyridine-3-carboxamide], the IC50 on TAF1-BD1 was 5790 nM; at TAF1-BD2 it was 1630 nM.
The corresponding values for `Cc1[nH]c2c(=O)n(C)cc(C#CC(C)(C)O)c2c1C(=O)NC(C)C` [Example 169, 4-(3-hydroxy-3-methyl-but-1-ynyl)-N-isopropyl-2,6-dimethyl-7-oxo-1H-pyrrolo[2,3-c]pyridine-3-carboxamide] are 5310 nM and 2670 nM.
Take `Cc1[nH]c2c(=O)n(C)cc(C#CC(C)(C)O)c2c1C(=O)NC(C)(C)C` [Example 170, N-tert-butyl-4-(3-hydroxy-3-methyl-but-1-ynyl)-2,6-dimethyl-7-oxo-1H-pyrrolo[2,3-c]pyridine-3-carboxamide]: the IC50 was 3620 nM at TAF1-BD1 and 347 nM at TAF1-BD2.
The corresponding values for `Cc1[nH]c2c(=O)n(C)cc(C#CC(C)(O)C3CC3)c2c1-c1nnc(C(C)(C)O)o1` (stereo not drawn) [Example 172, 4-(3-cyclopropyl-3-hydroxy-but-1-ynyl)-3-(5-(1-hydroxy-1-methyl-ethyl)-1,3,4-oxadiazol-2-yl)-2,6-dimethyl-1H-pyrrolo[2,3-c]pyridin-7-one] are 451 nM and 110 nM.
For the compound `CC(=O)NCc1nnc(-c2c(C)[nH]c3c(=O)n(C)cc(C#CC(O)(c4ccccc4)C(F)(F)F)c23)o1` (stereo not drawn) [Example 173, N-[[5-[2,6-dimethyl-7-oxo-4-(4,4,4-trifluoro-3-hydroxy-3-phenyl-but-1-ynyl)-1H-pyrrolo[2,3-c]pyridin-3-yl]-1,3,4-oxadiazol-2-yl]methyl]acetamide], the IC50 at TAF1-BD1 is 490 nM; at TAF1-BD2 it was 117 nM.
The corresponding values for `CC(=O)NCc1nnc(-c2c(C)[nH]c3c(=O)n(C)cc(C#CC(C)(O)C4CC4)c23)o1` (stereo not drawn) [Example 174, N-[[5-[4-(3-cyclopropyl-3-hydroxy-but-1-ynyl)-2,6-dimethyl-7-oxo-1H-pyrrolo[2,3-c]pyridin-3-yl]-1,3,4-oxadiazol-2-yl]methyl]acetamide] are 521 nM and 86.4 nM.
In the case of `Cc1[nH]c2c(=O)n(C)cc(C#CC(C)(O)C3CC3)c2c1-c1nnc(C2CCOC2)o1` (stereo not drawn) [Example 175, 4-(3-cyclopropyl-3-hydroxy-but-1-ynyl)-2,6-dimethyl-3-(5-tetrahydrofuran-3-yl-1,3,4-oxadiazol-2-yl)-1H-pyrrolo[2,3-c]pyridin-7-one], the IC50 came to 248 nM at TAF1-BD1 and 46.7 nM at TAF1-BD2.
Regarding `Cc1[nH]c2c(=O)n(C)cc(C#CC(C)(O)C3CC3)c2c1-c1nnc(C(C)CN2CCOCC2)o1` (stereo not drawn) [Example 176, 4-(3-cyclopropyl-3-hydroxy-but-1-ynyl)-2,6-dimethyl-3-[5-(1-methyl-2-morpholino-ethyl)-1,3,4-oxadiazol-2-yl]-1H-pyrrolo[2,3-c]pyridin-7-one], the IC50 at TAF1-BD1 was 241 nM; at TAF1-BD2 it was 38.3 nM.
For `Cc1nnc(-c2c(C)[nH]c3c(=O)n(C)cc(C#CC(C)(C)O)c23)o1` [Example 177, 4-(3-hydroxy-3-methyl-but-1-ynyl)-2,6-dimethyl-3-(5-methyl-1,3,4-oxadiazol-2-yl)-1H-pyrrolo[2,3-c]pyridin-7-one], the concentration for half-maximal inhibition (IC50) at TAF1-BD1 amounted to 543 nM; at TAF1-BD2, 50.7 nM.
In the same order, the values of `Cc1[nH]c2c(=O)n(C)cc(C#CC(O)(c3ccccc3)C(F)(F)F)c2c1-c1nnc(CCN(C)C)o1` (stereo not drawn) [Example 178, 3-[5-[2-(dimethylamino)ethyl]-1,3,4-oxadiazol-2-yl]-2,6-dimethyl-4-(4,4,4-trifluoro-3-hydroxy-3-phenyl-but-1-ynyl)-1H-pyrrolo[2,3-c]pyridin-7-one] are 725 nM and 88.1 nM.
On to `Cc1[nH]c2c(=O)n(C)cc(C#CC(C)(O)C3CC3)c2c1-c1nnc(CC(C)C)o1` (stereo not drawn) [Example 179, 4-(3-cyclopropyl-3-hydroxy-but-1-ynyl)-3-(5-isobutyl-1,3,4-oxadiazol-2-yl)-2,6-dimethyl-1H-pyrrolo[2,3-c]pyridin-7-one], for which the IC50 was determined as 137 nM on TAF1-BD1 and 29.2 nM on TAF1-BD2.
In the same order, the values of `Cc1[nH]c2c(=O)n(C)cc(C#CC(O)(c3ccccc3)C(F)(F)F)c2c1-c1nnc(C2CC2)o1` (stereo not drawn) [Example 180, 3-(5-cyclopropyl-1,3,4-oxadiazol-2-yl)-2,6-dimethyl-4-(4,4,4-trifluoro-3-hydroxy-3-phenyl-but-1-ynyl)-1H-pyrrolo[2,3-c]pyridin-7-one] are 249 nM and 47.1 nM.
On to `CCc1nnc(-c2c(C)[nH]c3c(=O)n(C)cc(C#CC(C)(O)C4CC4)c23)o1` (stereo not drawn) [Example 181, 4-(3-cyclopropyl-3-hydroxy-but-1-ynyl)-3-(5-ethyl-1,3,4-oxadiazol-2-yl)-2,6-dimethyl-1H-pyrrolo[2,3-c]pyridin-7-one], for which the half-inhibitory concentration (IC50) on TAF1-BD1 worked out at 199 nM; on TAF1-BD2, 44.8 nM.

Source of the values: patent US10202378B2, “Therapeutic compounds and uses thereof” (GENENTECH, INC., priority 2015, dated 2019).
